Source: PubChem BioAssay (NCI)
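Results reflect a 48-hour exposure of cells in 96-well plates to compound at five concentrations. The concentration for 50% growth inhibition is given as GI50. The concentration for full growth arrest is given as TGI.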

Experiments:
Assay in all cases: NCI anticancer screen, dose series, 48 h
[1] = test system: A549 NSCLC
[2] = test system: BT-549 breast
[3] = test system: CAKI-1 renal
[4] = test system: CCRF-CEM leukemia
[5] = test system: COLO 205 colon
[6] = test system: DU-145 prostate
[7] = test system: EKVX NSCLC
[8] = test system: HCT-15 colon
[9] = test system: HL-60(TB) leukemia
[10] = test system: HOP-62 NSCLC
[11] = test system: HOP-92 NSCLC
[12] = test system: HT29 colon
[13] = test system: IGROV1 ovarian
[14] = test system: K-562 leukemia
[15] = test system: KM12 colon
[16] = test system: LOX IMVI melanoma
[17] = test system: M14 melanoma
[18] = test system: MALME-3M melanoma
[19] = test system: MDA-MB-231 breast
[20] = test system: MDA-MB-435
[21] = test system: MOLT-4 leukemia
[22] = test system: NCI-H226 lung
[23] = test system: NCI-H23 lung
[24] = test system: NCI-H460 lung
[25] = test system: NCI-H522 lung
[26] = test system: NCI/ADR-RES ovarian
[27] = test system: OVCAR-3 ovarian
[28] = test system: OVCAR-4 ovarian
[29] = test system: OVCAR-5 ovarian
[30] = test system: OVCAR-8 ovarian
[31] = test system: PC-3 prostate
[32] = test system: RPMI-8226 leukemia
[33] = test system: SF-268 CNS
[34] = test system: SF-295 CNS
[35] = test system: SK-MEL-2 melanoma
[36] = test system: SK-MEL-28 melanoma
[37] = test system: SK-MEL-5 melanoma
[38] = test system: SNB-19 CNS
[39] = test system: SW-620 colon
[40] = test system: T-47D breast
[41] = test system: TK-10 renal
[42] = test system: U251 CNS
[43] = test system: UACC-257 melanoma
[44] = test system: UACC-62 melanoma
[45] = test system: UO-31 renal
[46] = test system: 786-0 renal
[47] = test system: ACHN renal
[48] = test system: HCC-2998 colon
[49] = test system: HCT-116 colon
[50] = test system: MCF7 breast
[51] = test system: RXF 393 renal
[52] = test system: SF-539 CNS
[53] = test system: SK-OV-3 ovarian
[54] = test system: SN12C renal
[55] = test system: SNB-75 CNS
[56] = test system: SR leukemia

`Cc1cccc(N2C(=O)C3c4[nH]c5ccc(C)cc5c4C4CCC(C(C)(C)C)CC4C3C2=O)c1` (centres undefined) was tested, and the TGI [1] was 60.7 µM, the TGI [2] was greater than 100 µM and the TGI [3] was greater than 100 µM. The TGI [4] was 68 µM, the TGI [5] was greater than 100 µM and the TGI [6] was 38.7 µM. For the same compound, the TGI [7] was 85.6 µM, the TGI [8] was greater than 100 µM and the TGI [9] was 40.3 µM. For the same compound, the TGI [10] was 30.9 µM, the TGI [11] was 57.6 µM and the TGI [12] was greater than 100 µM. For the same compound, the TGI [13] was greater than 100 µM, the TGI [14] was greater than 100 µM and the TGI [15] was 38 µM. For the same compound, the TGI [16] was 43.7 µM, the TGI [17] was greater than 100 µM and the TGI [18] was 71.2 µM. For the same compound, the TGI [19] was 38.4 µM, the TGI [20] was greater than 100 µM and the TGI [21] was 29.7 µM. It also gave a TGI [22] of 36.5 µM, a TGI [23] greater than 100 µM and a TGI [24] of 36.3 µM. The TGI [25] was 45.7 µM, the TGI [26] was 48.5 µM and the TGI [27] was 28.9 µM. For the same compound, the TGI [28] was greater than 100 µM, the TGI [29] was greater than 100 µM and the TGI [30] was 47.7 µM. It also gave a TGI [31] of 31.3 µM, a TGI [32] of 41.1 µM and a TGI [33] of 34.9 µM. It also gave a TGI [34] of 47.5 µM, a TGI [35] greater than 100 µM and a TGI [36] greater than 100 µM. The TGI [37] was greater than 100 µM, the TGI [38] was greater than 100 µM and the TGI [39] was 59.6 µM. It also gave a TGI [40] of 52.1 µM, a TGI [41] of 59.8 µM and a TGI [42] of 62.3 µM. It also gave a TGI [43] greater than 100 µM, a TGI [44] greater than 100 µM and a TGI [45] greater than 100 µM.
In the case of `Cc1nc2ccccc2nc1N=Nc1ccccc1`, the GI50 [46] is reported as 26.9 µM, the TGI [46] is reported as greater than 100 µM and the GI50 [1] is reported as 37.3 µM. It also gave a TGI [1] greater than 100 µM, a GI50 [47] of 16.9 µM and a TGI [47] greater than 100 µM. It also gave a GI50 [4] of 25 µM, a TGI [4] greater than 100 µM and a GI50 [5] of 0.291 µM. For the same compound, the TGI [5] was 1.91 µM, the GI50 [6] was 36.1 µM and the TGI [6] was greater than 100 µM. It also gave a GI50 [7] of 10.9 µM, a TGI [7] greater than 100 µM and a GI50 [48] of 37 µM. It also gave a TGI [48] greater than 100 µM, a GI50 [49] of 31.1 µM and a TGI [49] greater than 100 µM. The GI50 [8] was 16.3 µM, the TGI [8] was greater than 100 µM and the GI50 [9] was 20.6 µM. For the same compound, the TGI [9] was 56.6 µM, the GI50 [10] was 28.5 µM and the TGI [10] was greater than 100 µM. For the same compound, the GI50 [11] was 3.03 µM, the TGI [11] was 43.9 µM and the GI50 [12] was 0.193 µM. For the same compound, the TGI [12] was 15.1 µM, the GI50 [13] was 9.58 µM and the TGI [13] was greater than 100 µM. The GI50 [14] was 25.7 µM, the TGI [14] was greater than 100 µM and the GI50 [15] was 11.9 µM. The TGI [15] was 93.5 µM, the GI50 [16] was 23.3 µM and the TGI [16] was greater than 100 µM. For the same compound, the GI50 [17] was 17.7 µM, the TGI [17] was 44.8 µM and the GI50 [18] was 20.8 µM. The TGI [18] was 65.7 µM, the GI50 [50] was 5.75 µM and the TGI [50] was greater than 100 µM. The GI50 [19] was 16.2 µM, the TGI [19] was 69.1 µM and the GI50 [20] was 18.3 µM. For the same compound, the TGI [20] was 48.8 µM, the GI50 [21] was 14.9 µM and the TGI [21] was 43.2 µM. It also gave a GI50 [22] of 24.6 µM, a TGI [22] greater than 100 µM and a GI50 [23] of 14.4 µM. For the same compound, the TGI [23] was 51.1 µM, the GI50 [25] was 20.4 µM and the TGI [25] was 63.1 µM. It also gave a GI50 [26] of 16 µM, a TGI [26] of 57.6 µM and a GI50 [27] of 12.9 µM. It also gave a TGI [27] of 82.1 µM, a GI50 [28] of 16.5 µM and a TGI [28] greater than 100 µM. The GI50 [29] was 75.7 µM, the TGI [29] was greater than 100 µM and the GI50 [30] was 22.4 µM. The TGI [30] was greater than 100 µM, the GI50 [31] was 6.57 µM and the TGI [31] was 60.2 µM. It also gave a GI50 [32] of 12.2 µM, a TGI [32] of 42.8 µM and a GI50 [51] of 23.4 µM. The TGI [51] was greater than 100 µM, the GI50 [33] was 22.7 µM and the TGI [33] was greater than 100 µM. It also gave a GI50 [34] of 6.38 µM, a TGI [34] greater than 100 µM and a GI50 [52] of 27.9 µM. The TGI [52] was greater than 100 µM, the GI50 [35] was 24 µM and the TGI [35] was 61.3 µM. It also gave a GI50 [36] of 26 µM, a TGI [36] greater than 100 µM and a GI50 [37] of 16 µM. For the same compound, the TGI [37] was 30.1 µM, the GI50 [53] was 34.9 µM and the TGI [53] was greater than 100 µM. For the same compound, the GI50 [54] was 30 µM, the TGI [54] was greater than 100 µM and the GI50 [38] was 50.3 µM. For the same compound, the TGI [38] was greater than 100 µM, the GI50 [55] was 18.3 µM and the TGI [55] was greater than 100 µM. The GI50 [56] was 19 µM, the TGI [56] was greater than 100 µM and the GI50 [40] was 10.1 µM. For the same compound, the TGI [40] was 67.7 µM, the GI50 [41] was 48.8 µM and the TGI [41] was greater than 100 µM. It also gave a GI50 [42] of 35.9 µM, a TGI [42] greater than 100 µM and a GI50 [43] of 25.2 µM. It also gave a TGI [43] of 73.4 µM, a GI50 [44] of 14.2 µM and a TGI [44] of 35.2 µM. The GI50 [45] was 7.99 µM and the TGI [45] was greater than 100 µM.
